{"source": "patent US11083735B2", "about": "“Methods for treating sleep disorders, sleep disturbances, and related symptoms using aminosterol compositions” (Enterin, Inc., priority 2017, dated 2021)", "key": {"C. elegans model of PD": {"tested_on": "C. elegans model of PD", "details": "cited from earlier work"}, "[1]": {"tested_on": "patients with PD and constipation", "details": "in vivo", "procedure": "In Stage 1, ten (10) PD patients received a single escalating dose of squalamine (ENT-01) every 3-7 days beginning at 25 mg and continuing up to 200 mg or the limit of tolerability, followed by 2-weeks of wash-out. Duration of this part of the trial was 22-57 days. The 10 subjects in the sentinel group were assigned to Cohort 1 and participated in 8 single dosing periods. Tolerability limits included diarrhea or vomiting.\nEach dose period was staggered, so that subjects 1-2 were administered a single dose of the drug at the lowest dose of 25 mg. Once 24 hours have elapsed, and provided there are no safety concerns, the patient was sent home and brought back on day 4-8 for the next dose. During the days the subjects are home, they completed the daily diaries and e-mailed them to the study coordinators. Subjects 3-10 were dosed after the first 2 subjects have been observed for 72 hours, i.e. on Day 4. Subjects 1-2 were also brought back on Day 4-8 and given a single dose of 50 mg. Once another 24 hours have elapsed and provided there are no safety concerns, the patients were all sent home and instructed to return on Day 7 for the next dosing level. This single dosing regimen was continued until each subject was given a single dose of 200 mg or has reached a dose limiting toxicity (DLT). DLT was the dose which induces repeated vomiting, diarrhea, abdominal pain or symptomatic postural hypotension within 24 hours of dosing.\nAdverse events were coded using the current version of MedDRA. Severity of AEs were assessed by investigators according to CTCAE (v4.03): Grade 1 is labeled as Mild, Grade 2 as Moderate, and Grade 3 and above as Severe. […] The number (percentage) of subjects who experienced an AE during escalation and fixed dosing periods were summarized by dose level and overall for each stage. The denominator for calculating the percentages were based on the number of subjects ever exposed to each dose and overall."}, "[2]": {"test": "Pharmacokinetics of orally administered squalamine (ENT-01) in Stage 2", "type": "in vivo, human", "details": "Stage 2, oral; for Cmax: squalamine ion, mean", "method": "Pharmakokinetics: PK data were collected on the 10 patients enrolled in Stage 1 and 10 patients enrolled in Stage 2 to determine the extent of systemic absorption. In Stage 1, PK data were obtained at each visit, pre-medication, at 1, 2, 4, 8 and 24 hours (Table 14). In Stage 2, PK was measured on days 1 and 6 of the randomization period pre-medication, at 1, 2, 4 and 8 hours (Table 15).\nThe mean Cmax, Tmax and T1/2 and AUC of the squalamine ion following squalamine (ENT-01) oral dosing for Stage 1 patients. The PK analyses are only approximate, as the lower limit of the validated concentration range was 10 ng/ml; most of the measured concentrations fell below that value. The mean Cmax, Tmax and T1/2 and AUC of the squalamine ion following squalamine (ENT-01) oral dosing for Stage 2 patients. The PK analyses are only approximate, as the lower limit of the validated concentration range was 0.5 ng/ml."}, "[3]": {"test": "Preclinical oral studies in dogs (bioavailability, tolerability)"}, "Solubility in water": {"test": "Solubility in water", "type": "physicochemical"}, "[4]": {"test": "Duration of the aminosterol-induced response after a single oral dose", "type": "in vivo, human", "details": "single 200 mg oral dose", "description": "The invention is also based on the discovery of unexpected and unprecedented activity of orally or nasally administered squalamine and related aminosterols (e.g., aminosterol 1436). The activity relates to stimulating a sequence of events within the human GI tract with therapeutic value. With respect to this activity, the sequence of events stimulated by an aminosterol such as squalamine or aminosterol 1436 involves the induction of an intestinal secretory response followed by a period of “small intestinal quieting,” and the subsequent passage of a normally formed bowel movement. These events are best explained as a consequence of the stimulation of a heretofore unknown physiological gastrointestinal response, in this invention shown to be controlled or initiated by an effective oral dose of an aminosterol such as squalamine or the related aminosterol, 1436 (Aminosterol-Induced GI Response). The activity relates to stimulating the neural connections between the enteric nervous system and the brain with therapeutic value, which can thereby impact sleeping disorders, sleeping disturbances, or related symptoms, as described herein. With respect to this activity, the sequence of events stimulated by an aminosterol involves the entrainment of the circadian clock, the suprachiasmatic nucleus, and an improvement in the quality of sleep. […]"}, "[5]": {"tested_on": "elderly patient with a sleep disorder", "test": "Example 1: person with sleep disturbance, oral squalamine (Kenterin), sleep diary and I-button wrist temperature", "type": "in vivo, human", "details": "for % Change in Hours: 125 qod", "method": "An elderly patient with a sleep disorder was treated with squalamine to determine the efficacy of the drug for treating sleep disturbances. The patient was a person with a 10 year history of sleep disturbance and a history of constipation, anxiety, and anosmia for as long as they could remember. Their sleep was profoundly disturbed: they had difficulty falling asleep, awoke 3-4 times during the night, had vivid dreams and nightmares, spoke and screamed out loud during their sleep (REM-behavior disorder, RBD), often saw “apparitions” or people in the room (e.g., a cook in a top hat, priests and angels dressed in white). They slept with a night light on in an attempt to minimize these occurrences.\nThe patient was treated with oral squalamine (Kenterin™) starting at 100 mg qd and increasing to 200 mg qd. Sleep was monitored indirectly with the use of a temperature sensor (I-button) mounted on a wristband. The sensor was programed to record skin temperature at the wrist every 15 minutes 24 hrs a day. Data were downloaded every few weeks.\nIn other words, as the dose is increased, the hours of sleep increase, and as the dose was decreased, the hours of sleep decreased. The effect was immediate. Shown in FIG. 2 is the hours of sleep resulting following the following dosing schedule for squalamine: (1) 100 mg q.d., (2) 150 mg q.d., (3) 200 mg q.d., (4) 125 mg every third day, (5) 100 mg every third day, and (6) 125 mg q.o.d.\nIn other words, the patient was falling asleep more easily. […] Thus, not only does squalamine decrease delay in sleep onset and increase total sleep time, but it also has an effect on RBD and hallucinations, both of which occur as a result of Circadian rhythm dysfunction."}, "[6]": {"tested_on": "mice with constipation due to overexpression of human αS", "test": "Oral squalamine in mice with constipation due to overexpression of human αS", "type": "in vivo, mouse", "details": "orally administered (West et al, manuscript in preparation)"}, "[7]": {"details": "100 mg q3d, days 81-83, daily values and mean"}, "[8]": {"details": "100 mg q3d, days 81-83, daily values and mean, mean"}, "[9]": {"details": "150 mg q3d, days 105-111, daily values and mean"}, "[10]": {"details": "150 mg q3d, days 105-111, daily values and mean, mean"}, "[11]": {"details": "150 mg qod, days 100-104, daily values and mean"}, "[12]": {"details": "150 mg qod, days 100-104, daily values and mean, mean"}, "[13]": {"details": "days 53-55: 175/200 mg, daily values and Mean 200"}, "[14]": {"details": "days 53-55: 175/200 mg, daily values and Mean 200, mean"}}, "note": "Where “and” joins values, the source holds several entries; their conditions need not be identical. Equal values may be shown once."}
{"smiles": "CC(C)[C@@H](CC[C@@H](C)[C@H]1CC[C@H]2[C@@H]3[C@H](O)C[C@H]4C[C@@H](NCCCNCCCCN)CC[C@]4(C)[C@H]3CC[C@]12C)OS(=O)(=O)O", "note": "(single isomer, unassigned; ent-01) [ENT-01]", "values": [{"measurement": "formation of aggregates of αS", "setting": "C. elegans model of PD; in vivo (Perni et al. 2017)", "result": "inhibit the formation of aggregates"}, {"measurement": "Eye infection, Moderate", "setting": "[1]", "result": "0 n, %"}, {"measurement": "AUC0-8 hr", "setting": "[2]; dose 75 mg", "result": 0.059, "unit": "µg·h/mL"}, {"measurement": "Tmax (Median Value)", "setting": "[2]; dose 75 mg", "result": 3.0, "unit": "h"}, {"measurement": "Cmax", "setting": "[2]; dose 75 mg", "result": 0.01, "unit": "µg/mL"}, {"measurement": "AUC0-8 hr", "setting": "[2]; dose 100 mg", "result": 0.0703, "unit": "µg·h/mL"}, {"measurement": "Tmax (Median Value)", "setting": "[2]; dose 100 mg", "result": 1.0, "unit": "h"}, {"measurement": "Cmax", "setting": "[2]; dose 100 mg", "result": 0.0177, "unit": "µg/mL"}, {"measurement": "AUC0-8 hr", "setting": "[2]; dose 175 mg", "result": 0.0668, "unit": "µg·h/mL"}, {"measurement": "Tmax (Median Value)", "setting": "[2]; dose 175 mg", "result": 2.0, "unit": "h"}, {"measurement": "Cmax", "setting": "[2]; dose 175 mg", "result": 0.0118, "unit": "µg/mL"}, {"measurement": "tolerability", "setting": "[3]", "result": "well tolerated"}, {"measurement": "oral bioavailability", "setting": "[3]; preclinical studies", "result": "about 0.1%"}, {"measurement": "solubility in water", "setting": "Solubility in water; neutral pH", "result": "weakly soluble"}, {"measurement": "solubility in water", "setting": "Solubility in water; pH<3.5 (the pH of gastric fluid)", "result": "readily dissolves"}]}
{"smiles": "CC(C)[C@@H](CC[C@@H](C)[C@H]1CC[C@H]2[C@@H]3[C@H](O)C[C@H]4C[C@@H](NCCCNCCCCN)CC[C@]4(C)[C@H]3CC[C@]12C)OS(=O)(=O)O", "note": "[squalamine]", "values": [{"measurement": "muscle paralysis", "setting": "C. elegans model of PD; C. elegans model of PD (Perni et al. 2017)", "result": "complete reversal of muscle paralysis"}, {"measurement": "duration of the aminosterol-induced response", "setting": "[4]", "result": "about 4 days"}, {"measurement": "Delay", "setting": "[5]; [7]", "result": 30, "unit": "min"}, {"measurement": "Fragments awake", "setting": "[5]; [7]", "result": "40 min and 30 min"}, {"measurement": "Total hrs sleep", "setting": "[5]; [7]", "result": "6.75 h and 7 h"}, {"measurement": "Fragments awake", "setting": "[5]; [8]", "result": 36, "unit": "min"}, {"measurement": "Total hrs sleep", "setting": "[5]; [8]", "result": 6.8, "unit": "h"}, {"measurement": "Delay", "setting": "[5]; 125 mg q3d, days 69-80, daily values and mean", "result": "20 min and 30 min"}, {"measurement": "Delay", "setting": "[5]; 125 mg q3d, days 69-80, daily values and mean, mean", "result": 25, "unit": "min"}, {"measurement": "Delay", "setting": "[5]; [9]", "result": "10 min and 15 min and 20 min"}, {"measurement": "Total hrs sleep", "setting": "[5]; [9]", "result": "10 h and 9.50 h and 8.75 h and 9.75 h and 8 h"}, {"measurement": "Delay", "setting": "[5]; [10]", "result": 14, "unit": "min"}, {"measurement": "Total hrs sleep", "setting": "[5]; [10]", "result": 9.3, "unit": "h"}, {"measurement": "Delay", "setting": "[5]; [11]", "result": "15 min and 20 min"}, {"measurement": "Total hrs sleep", "setting": "[5]; [11]", "result": "9 h and 8.5 h and 7.75 h and 10 h and 9.5 h"}, {"measurement": "Delay", "setting": "[5]; [12]", "result": 17, "unit": "min"}, {"measurement": "Total hrs sleep", "setting": "[5]; [12]", "result": 8.95, "unit": "h"}, {"measurement": "% Change in Hours (from base)", "setting": "[5]; 100 qd", "result": "+5.3%"}, {"measurement": "Total hrs sleep", "setting": "[5]; 100 qd (mg), pre (0) 7.5", "result": 7.9, "unit": "h"}, {"measurement": "Total hrs sleep", "setting": "[5]; 125 qod (mg)", "result": 8.7, "unit": "h"}, {"measurement": "% Change in Hours", "setting": "[5]; from initial pre(0)", "result": "+16% from initial pre(0);"}, {"measurement": "% Change in Hours", "setting": "[5]; from post (0)", "result": "+24.3% from post (0)"}, {"measurement": "% Change in Hours (from base)", "setting": "[5]; 150 qd", "result": "+17.3%"}, {"measurement": "Total hrs sleep", "setting": "[5]; 150 qd (mg)", "result": 8.8, "unit": "h"}, {"measurement": "Total hrs sleep", "setting": "[5]; 200 qd (mg), baseline 7.5", "result": 9.1, "unit": "h"}, {"measurement": "% Change in Hours (from base)", "setting": "[5]; Post (0)", "result": "−6.7", "unit": "%"}, {"measurement": "Total hrs sleep", "setting": "[5]; Post (0), after discontinuation of squalamine", "result": 7.0, "unit": "h"}, {"measurement": "Fragments awake", "setting": "[5]; after STOP, days 62-68, daily values and mean", "result": "30 min and 20 min"}, {"measurement": "diurnal rhythm (I-button recording, FIG. 7)", "setting": "[5]; after an appropriate dose of squalamine", "result": "restored almost immediately"}, {"measurement": "diurnal rhythmicity (I-button, periodogram)", "setting": "[5]; after intermittent treatment for several months", "result": "some diurnal rhythmicity was restored"}, {"measurement": "circadian rhythm (I-button, periodogram)", "setting": "[5]; after the first week of treatment", "result": "still absent"}, {"measurement": "Delay", "setting": "[5]; days 53-55: 175 mg (day 53), 200 mg (days 54-55), daily values and Mean 200", "result": 20, "unit": "min"}, {"measurement": "Fragments awake", "setting": "[5]; [13]", "result": "15 min and 30 min"}, {"measurement": "Total hrs sleep", "setting": "[5]; [13]", "result": "9.0 h and 9.25 h"}, {"measurement": "Fragments awake", "setting": "[5]; [14]", "result": 20, "unit": "min"}, {"measurement": "Total hrs sleep", "setting": "[5]; [14]", "result": 9.1, "unit": "h"}, {"measurement": "Total hrs sleep", "setting": "[5]; off K, days 112-135, daily values and mean", "result": 4.5, "unit": "h"}, {"measurement": "RBD (vivid dreams and nightmares) and frank visual hallucinations", "setting": "[5]; on treatment, reappeared when medication was discontinued", "result": "disappeared on treatment"}, {"measurement": "gastro-intestinal motility", "setting": "[6]", "result": "stimulates gastro-intestinal motility"}]}
